# Legend:
# [1] = Metabolites of [14C] Compound 1 in cryopreserved hepatocytes; format: in vitro ADME, human; conditions: [C-14] Compound 1 10 μM, 180 mins
# Protocol: Incubations were performed in hepatocytes for 3 hours and liver microsomes for 1.5 hours and were stopped with the addition of methanol. HPLC, in conjuction with ionspray 3D iontrap mass spectrometry, and simultaneous radioactive monitoring were used to detect and identify the resulting metabolites.
# Metabolite identification of radiolabeled Compound 1 was performed after incubation with rat, dog, monkey and human cryopreserved hepatocytes and liver microsomes. […] Besides glucuronidation, metabolites derived from other clearance pathways are also observed. For instance, M 15 (acid cleavage product) accounts for 11% of the total radioactivity in the human chromatogram.
# clinical = conditions: human, plasma, oral
# Protocol: Pharmacokinetic data are presented for the first 38 subjects.
# Blood samples were collected from patients into a purple-top potassium EDTA Vacutainer tube. Following mixing with gentle inversion (8-10 times), tubes were centrifuged within 20 minutes at 1000×g for 15 minutes, to harvest plasma. Plasma samples were stored at −20° C. until analysis.
# The following results are based on preliminary pharmacokinetic parameters from the 38 subjects, estimated using nominal collection times and quality-controlled, non quality-assured bioanalytical data. Pharmacokinetic parameters were determined by the non-compartmental method using WINNONLIN Professional Edition (Version 4.1). […] The maximum observed concentration (Cmax) was obtained by inspection of the concentration data. The time to reach the Cmax was the first time at which Cmax is observed and obtained by inspection of the data. The pre-dose concentration (Ctrough) was obtained by inspection of the concentration data.
compound,measurement,setting,value
"O=C(NOC[C@H](O)CO)c1ccc(F)c(F)c1Nc1ccc(I)cc1F [Compound 1, N-[(R)-2,3-dihydroxy-propoxy]-3,4-difluoro-2-(2-fluoro-4-iodo-phenylamino)-benzamide]",% ROI Human,[1],15.68%
same,half-life,clinical,5 to 14 h
same,Cmax,clinical; 1 mg,0.0411 µg/mL
same,Tmax,clinical; 1 mg,1 h
same,half-life,clinical; 1 mg,13.9 h
same,Cmax,clinical; 2 mg,0.152 µg/mL
same,Tmax,clinical; 2 mg,1 h
same,AUC(0-t),clinical; 4 mg,1.58 µg·h/mL
same,Cmax,clinical; 4 mg,0.208 µg/mL
same,Tmax,clinical; 4 mg,1 h
same,concentration at 21 day,clinical; 4 mg,0.082 µg/mL
same,half-life,clinical; 4 mg,7.6 h
same,Cmax,clinical; 15 mg,0.706 µg/mL
same,Tmax,clinical; 15 mg,1 h
same,half-life,clinical; 15 mg,12.6 h
same,AUC(0-t),clinical; 20 mg,6.99 µg·h/mL
same,Cmax,clinical; 20 mg,0.766 µg/mL
same,Tmax,clinical; 20 mg,2 h
same,concentration at 21 day,clinical; 20 mg,0.44 µg/mL
same,half-life,clinical; 20 mg,8.3 h
same,AUC(0-t),clinical; 30 mg,12.5 µg·h/mL
same,Cmax,clinical; 30 mg,1.64 µg/mL
same,Tmax,clinical; 30 mg,2 h
same,concentration at 21 day,clinical; 30 mg,0.5 µg/mL
same,half-life,clinical; 30 mg,4.8 h
same,doses at which Grade 3 rashes were seen,"human, in vivo",above 15 mg BID
same,effect on serum (C×P) product,"human, in vivo",no notable effect
same,MTD,"patients, dosing 21 days of a 28-day cycle",20 mg BID

# Source: patent US20060154990A1, “Use of MEK inhibitors in treating abnormal cell growth” (AGOURON PHARMACEUTICALS, INC., priority 2004, published 2006)
